# Key:
# [1] = tested on: Human immunodeficiency virus 1; test: Inhibition of reverse transcriptase RTY18C mutant in HIV1 Z6gpt assessed as inhibition of ssDNA synthesis
# [2] = target: Human immunodeficiency virus type 1 reverse transcriptase (Human immunodeficiency virus 1) (UniProt Q72547); settings: 10 uM
# Description: Inhibition of reverse transcriptase assessed as decrease in ssDNA level in cell free virion HIV1 by NERT-based real-time PCR at 10 uM
smiles,measurement,setting,value
Cc1ccnc2c1NC(=O)c1cccnc1N2C1CC1,Activity,[1],256 µM
same,inhibition,[2],75%
